Laboratory results: patent publication EP4644375A1, “SUBSTITUTED HYDROQUINOLINES FOR THE TREATMENT OF GLIOBLASTOMA MULTIFORME” (Molius Saglik Teknolojileri Anonim Sirketi, priority 2024, dated 2025)

Legend:
[1] = system: U138-MG human glioma cell; test: Cell proliferation analysis (MTT); format: cell-based; details: 10 µM, two days, MTT; for activity at 10 µM / inhibition at 10 µM: Homo sapiens, 48 h
Description: (§1) U87-MG and U138-MG human glioma cell, were incubated with 10% fetal bovine serum (FBS) (Gibco, 10500-064), 1% L-glutamine (Gibco, 25030-024), in a humidified incubator with 5% CO2 at 37 °C. The cells were contained in DMEM High Glucose (Gibco, 41966-029) supplemented with 1% penicillin-streptomycin (P/S) (Gibco 15140-122) solution. The cytotoxic effects of the target compounds on U87-MG and U138-MG cell lines were assessed using the MTT (Thiazolyl Blue Tetrazolium Bromide) method. 7×10^3 cells were seeded into a 96-well plate in 100 µl DMEM High Glucose 10% FBS and 1% P/S. 24 hours after cell incubation, each target compound was added at a dose of 10 µM and the drug treatment was carried out for two days. After the incubation period, 10 µL of MTT solution was added to each well (5 mg/ml in PBS). After 2 hours, MTT solutions were removed from the wells. Then, 100 µl DMSO was added, and mixed to dissolve the formazan crystals. Cell proliferation was analysed by measuring the absorbance of dissolved formazan at a wavelength of 570 nm.
(§2) IC50 values were determined using the same method as above wherein the cells were treated with the target compounds at different doses.

U87-MG human glioma cell = test: Cell proliferation analysis (MTT); format: cell-based; details: for activity at 10 µM / inhibition at 10 µM: Homo sapiens, U-87 MG, 48 h; for top 5 target compounds whose treatment resulted in the lowest proliferation: ranking
Description: as §1, §2

SMILES	activity at 10 µM [1] [%]	inhibition at 10 µM [1] [%]	activity at 10 µM (U87-MG human glioma cell; 10 µM, two days, MTT) [%]	inhibition at 10 µM (U87-MG human glioma cell; 10 µM, two days, MTT) [%]	top 5 target compounds whose treatment resulted in the lowest proliferation (U87-MG human glioma cell)	Cell Proliferation (%) [1] [%]	Cell Proliferation (%) (U87-MG human glioma cell; 10 µM, two days, MTT)
Nc1ncc(/C=N/NC(=O)COc2ccc3c(c2)CCC(=O)N3)cn1 [TR-G076, (E)-N'-((2-aminopyrimidin-5-yl)methylene)-2-((2-oxo-1,2,3,4-tetrahydroquinolin-6-yl)oxy)acetohydrazide]	92	8	97	3			
COc1ccc(NC(=O)COc2ccc3c(c2)CCC(=O)N3)cc1OC [TR-G077, N-(3,4-dimethoxyphenyl)-2-((2-oxo-1,2,3,4-tetrahydroquinolin-6-yl)oxy)acetamide]	88	12	88	12			
O=C1CCc2cc(OCc3cn(-c4cccc5[nH]ncc45)nn3)ccc2N1 [TR-G078, 6-((1-(1H-indazol-4-yl)-1H-1,2,3-triazol-4-yl)methoxy)-3,4-dihydroquinolin-2(1H)-one]	57	43	44	56	top 5		
CCOC(=O)CCn1cc(COc2ccc3c(c2)CCC(=O)N3)nn1 [TR-G079, ethyl 3-(4-(((2-oxo-1,2,3,4-tetrahydroquinolin-6-yl)oxy)methyl)-1H-1,2,3-triazol-1-yl)propanoate]	112	-12	94	6			
O=C1CCc2cc(OCc3cn(CCOCc4ccccc4)nn3)ccc2N1 [TR-G080, 6-((1-(2-(benzyloxy)ethyl)-1H-1,2,3-triazol-4-yl)methoxy)-3,4-dihydroquinolin-2(1H)-one]	71	29	79	21			
O=C1CCc2cc(OC(=O)c3cccc([N+](=O)[O-])c3)ccc2N1 [TR-G081, 2-oxo-1,2,3,4-tetrahydroquinolin-6-yl 3-nitrobenzoate]	108	-8	65	35			
CCCn1cc(COc2ccc3c(c2)CCC(=O)N3)nn1 [TR-G082, 6-((1-propyl-1H-1,2,3-triazol-4-yl)methoxy)-3,4-dihydroquinolin-2(1H)-one]	89	11	74	26			
O=C1CCc2cc(OCc3cc(-c4ccc(Cl)cc4)no3)ccc2N1 [TR-G084, 6-((3-(4-chlorophenyl)isoxazol-5-yl)methxy)-3,4-dihydroquinolin-2(1H)-one]		30		35		71	65
COc1ccc(S(=O)(=O)Oc2ccc3c(c2)CCC(=O)N3)cc1OC [TR-G085, 2-oxo-1,2,3,4-tetrahydroquinolin-6-yl 3,4-dimethoxybenzenesulfonate]	71	29	53	47			
O=C1CCc2cc(OCc3cn(Cc4ccc(F)cc4)nn3)ccc2N1 [TR-G086, 6-((1-(4-fluorobenzyl)-1H-1,2,3-triazol-4-yl)methoxy)-3,4-dihydroquinolin-2(1H)-one]	79	21	79	21			
O=C1CCc2cc(OCC(=O)N3CCN(c4ccc(C(F)(F)F)cc4)CC3)ccc2N1 [TR-G087, 6-(2-oxo-2-(4-(4-(trifluoromethyl)phenyl)piperazin-1-yl)ethoxy)-3,4-dihydroquinolin-2(1H)-one]	55	45	58	42			
O=C(COc1ccc2c(c1)CCC(=O)N2)Nc1ccc2ncccc2c1 [TR-G089, 2-((2-oxo-1,23,4-tetrahydroquinolin-6-yl)oxy)-N-(quinolin-6-yl)acetamide]	67	33	67	33			
CC(=O)c1ccc(-n2cc(COc3ccc4c(c3)CCC(=O)N4)nn2)cc1 [TR-G093, 6-((1-(4-acetylphenyl)-1H-1,2,3-triazol-4-yl)methoxy)-3,4-dihydroquinolin-2(1H)-one]	63	38	55	45			
COc1cc(NC(=O)COc2ccc3c(c2)CCC(=O)N3)cc(OC)c1OC [TR-G094, 2-((2-oxo-1,2,3,4-tetrahydroquinolin-6-yl)oxy)-N-(3,4,5-trimethoxyphenyl)acetamide]	80	20	78	22			
O=C1CCc2cc(OC(=O)Nc3ccccc3Cl)ccc2N1 [TR-G096, 2-oxo-1,2,3,4-tetrahydroquinolin-6-yl (2-chlorophenyl)carbamate]	70	30	75	25			
CC(C)CCN1C(=O)CCc2cc(OCCCCc3nnnn3C3CCCCC3)ccc21 [TR-G101, 6-(4-(1-cyclohexyl-1H-tetrazol-5-yl)butoxy)-1-isopentyl-3,4-dihydroquinolin-2(1H)-one]	76	24	76	24			
CCOC(=O)CN1C(=O)CCc2cc(OCCCCc3nnnn3C3CCCCC3)ccc21 [TR-G102, ethyl 2-(6-(4-(1-cyclohexyl-1H-tetrazol-5-yl)butoxy)-2-oxo-3,4-dihydroquinolin-1(2H)-yl)acetate]	49	51	66	35			
C=CCN1C(=O)CCc2cc(OCCCCc3nnnn3C3CCCCC3)ccc21 [TR-G103, 1-allyl-6-(4-(1-cyclohexyl-1H-tetrazol-5-yl)butoxy)-3,4-dihydroquinolin-2(1H)-one]	63	38	45	55	top 5		
Cc1ccc(CN2C(=O)CCc3cc(OCCCCc4nnnn4C4CCCCC4)ccc32)cc1 [TR-G104, 6-(4-(1-cyclohexyl-1H-tetrazol-5-yl)butoxy)-1-(4-methylbenzyl)-3,4-dihydroquinolin-2(1H)-one]	83	17	49	51			
CCCN1C(=O)CCc2cc(OCCCCc3nnnn3C3CCCCC3)ccc21 [TR-G105, 6-(4-(1-cyclohexyl-1H-tetrazol-5-yl)butoxy)-1-propyl-3,4-dihydroquinolin-2(1H)-one]	73	28	48	52			
O=C1CCc2cc(OCCCCc3nnnn3C3CCCCC3)ccc2N1CCCc1ccccc1 [TR-G106, 6-(4-(1-cyclohexyl-1H-tetrazol-5-yl)butoxy)-1-(3-phenylpropyl)-3,4-dihydroquinolin-2(1H)-one]	66	35	73	27			
